According to US5317014A, “Peptides and pseudopeptides derived from tachykinin” (priority 1991, dated 1994):
Structures can show the parent of a compound that is named as a salt.

How the values were obtained:
[1] = target: T1, NK3 receptor (Rattus norvegicus, UniProt P16177); experiment: Bio assay on isolated smooth muscle: rat portal vein; format: cell-based; conditions: antagonistic power, read-out: pA2 NK3 (converted)
T1 construct: three smooth muscle preparations were used; from tissue; host or cells: rat portal vein (isolated smooth muscle)
T1 sequence (P16177 1-452): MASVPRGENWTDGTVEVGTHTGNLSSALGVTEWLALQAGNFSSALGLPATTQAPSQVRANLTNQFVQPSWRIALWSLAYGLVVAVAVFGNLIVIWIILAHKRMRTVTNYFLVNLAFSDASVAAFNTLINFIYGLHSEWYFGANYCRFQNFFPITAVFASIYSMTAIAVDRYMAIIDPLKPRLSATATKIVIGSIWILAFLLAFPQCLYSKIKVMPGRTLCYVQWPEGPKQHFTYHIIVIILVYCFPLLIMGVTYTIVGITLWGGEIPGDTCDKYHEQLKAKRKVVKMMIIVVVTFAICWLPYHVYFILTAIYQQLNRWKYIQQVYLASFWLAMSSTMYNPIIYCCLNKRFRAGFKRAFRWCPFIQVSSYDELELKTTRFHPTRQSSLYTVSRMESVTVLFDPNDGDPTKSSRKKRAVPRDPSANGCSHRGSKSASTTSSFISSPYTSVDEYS
Experimental: (§1) In order to evaluate the neurokinin antagonistic potential of the compounds of the invention, three smooth muscle preparations were used. Each of these preparations, described as having a good specificity for one type of receptor for neurokinins, was carried out conforming to the following techniques described in the literature:
rat portal vein for the study of the NK3 receptor according to D. REGOLI et al. (European J. Pharmacol. 134, 321-326, 1986).
(§2) The antagonistic power of the compounds of the invention is expressed in the form of pA2 as defined by O. ARUNLAKSHANA and H. O. SCHILD (Brit. J. Pharmacol., 14, 48-58, 1959).

[2] = target: T2, NK2 receptor (Oryctolagus cuniculus, UniProt P79218); experiment: Bio assay on isolated smooth muscle: rabbit pulmonary artery without endothelium; format: cell-based; conditions: antagonistic power, read-out: pA2 NK2 (converted)
T2 construct: three smooth muscle preparations were used; from tissue; host or cells: rabbit pulmonary artery without endothelium (isolated smooth muscle)
T2 sequence (P79218 1-384): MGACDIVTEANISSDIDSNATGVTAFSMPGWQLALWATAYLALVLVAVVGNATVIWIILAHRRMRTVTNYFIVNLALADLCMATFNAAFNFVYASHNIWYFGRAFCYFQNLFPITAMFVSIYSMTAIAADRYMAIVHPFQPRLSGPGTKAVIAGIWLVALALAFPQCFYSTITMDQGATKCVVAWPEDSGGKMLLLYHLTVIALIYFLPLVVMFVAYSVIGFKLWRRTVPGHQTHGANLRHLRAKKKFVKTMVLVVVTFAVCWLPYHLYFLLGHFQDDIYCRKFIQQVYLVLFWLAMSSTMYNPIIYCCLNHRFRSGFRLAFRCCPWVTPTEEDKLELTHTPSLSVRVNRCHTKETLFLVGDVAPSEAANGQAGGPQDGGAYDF
Experimental: as §1
rabbit pulmonary artery without endothelium for the study of the NK2 receptor according to D. REGOLI et al. (European J. Pharmacol. 125, 37-44, 1985);
as §2

[3] = tested on: NK1 receptor; format: cell-based, rabbit; conditions: for pA2 NK1: antagonistic power, rabbit vena cava
Experimental: as §1
rabbit vena cava for the study of the NK1 receptor according to D. REGOLI et al. (J. Cardiovasc. Pharmacol., in press);
as §2

[4] = tested on: mouse; experiment: Eddy test in the mouse (thermal hyperalgesia, hot plate 55° C.); format: in vivo; conditions: dose increasing the reaction time by 50%; i.v. 5 minutes before heating plate; CD1 male mice
Experimental: This test consists in measuring the reaction time to heat determined by licking of the forepaws in a mouse (CD1 male, Ch. River, 25-30 g) placed on a metal plate heated to 55° C.
The animals were treated intravenously with the compounds of the invention 5 minutes before passing onto the heating plate.
The mean of the reaction times obtained for each batch treated (12 mice per batch) was compared with the mean of the corresponding control batch.

Compound	Kb [1]	Kb [2]	pA2 NK1 [3]	Eddy test in the mouse ED50 [4]	antagonistic activity with respect to NK1 receptors, compared with NK2 and NK3 (in words) ([3]; isolated smooth muscle preparations)
CN(Cc1ccccc1)C(=O)[C@H](Cc1ccccc1)NC(=O)[C@@H](Cc1cn(C=O)c2ccccc12)NC(=O)C[C@H]1NC(=O)[C@@H]2Cc3ccccc3CN2C1=O [Example 6, Cyclo(Tic--asp)--trp(CHO)--Phe--N(CH3)CH2 C6 H5]	13.5 µM	> 6.76 µM	6.87		
CN(Cc1ccccc1)C(=O)[C@H](Cc1ccccc1)NC(=O)[C@@H](Cc1cn(C=O)c2ccccc12)NC(=O)C[C@H]1NC(=O)[C@H]2C3CCC(CC3)N2C1=O [Example 5, Cyclo(abo--asp)--trp(CHO)--Phe--N(CH3)CH2 C6 H5]	13.8 µM	2 µM			
CN(Cc1ccccc1)C(=O)[C@H](Cc1ccccc1)NC(=O)[C@@H](Cc1cn(C(=O)CCCCCCN)c2ccccc12)NC(=O)C[C@@H]1NC(=O)[C@@H]2C3CCC(CC3)N2C1=O [Example 38, Cyclo(Abo--Asp)--trp(CO(CH2)6 NH2, HCl)--Phe--N(CH3)CH2 C6 H5]			6.70		
CN(Cc1ccccc1)C(=O)[C@H](Cc1ccccc1)NC(=O)[C@@H](Cc1c[nH]c2ccccc12)NC(=O)C[C@@H]1NC(=O)[C@@H]2C3CCC(CC3)N2C1=O [Example 9, Cyclo(Abo--Asp)--trp--Phe--N(CH3)CH2 C6 H5]		1 µM			
CN(Cc1ccccc1)C(=O)[C@H](Cc1ccccc1)NC(=O)[C@@H](Cc1cn(C=O)c2ccccc12)NC(=O)C[C@@H]1NC(=O)[C@H](Cc2ccccc2)N(C)C1=O [Example 7, Cyclo(MePhe--Asp)--trp(CHO)--Phe--N(CH3)CH2 C6 H5]	13.5 µM	13.5 µM	6.87		
CN1CC[C@]23c4c5ccc(O)c4O[C@H]2[C@@H](O)C=C[C@H]3[C@H]1C5 [morphine]				0.5 mg/kg i.v.	
CN(Cc1ccccc1)C(=O)[C@H](Cc1ccccc1)NC(=O)C[C@@H]1NC(=O)[C@@H]2Cc3ccccc3CN2C1=O [Example 16, Cyclo(Tic--Asp)--Phe--N(CH3)CH2 C6 H5]	19.1 µM	19.1 µM	6.02		
Cyclo(Tic--asp)--.PSI.(CH2 S)--Phe--N(CH3)CH2 C6 H5 [Example 24]					more particularly the case
CN(Cc1ccccc1)C(=O)[C@H](Cc1ccccc1)NC(=O)[C@@H]1C2CCC(CC2)N1C(=O)c1c[nH]c2ccccc12 [Example 31, (indol-3-yl) carbonyl--Abo--Phe--N(CH3)CH2 C6 H5]	9.12 µM	13.8 µM	7.34		
CN(Cc1ccccc1)C(=O)[C@H](Cc1ccccc1)NC(=O)[C@@H](Cc1cn(C=O)c2ccccc12)NC(=O)C[C@@H]1NC(=O)[C@@H]2C3CCC(CC3)N2C1=O [Example 1, Cyclo(Abo--Asp)--trp(CHO)--Phe--N(CH3)CH2 C6 H5]	13.8 µM	13.8 µM			
